Test results as given in ChEMBL document CHEMBL1136389, “Structure-activity relationship of a novel class of naphthyl amide KATP channel openers” (Bioorg Med Chem Lett, 2003).

What was measured:
Rattus norvegicus [1] = assay: In vivo concentration required for the 10% reduction of mean arterial pressure in anesthetized obstructed male rat, administered intravenously at a dose of 50 nM/Kg; assay type: functional, Artery
Rattus norvegicus [2] = assay: In vivo concentration required for the inhibition of unstable contraction in anesthetized obstructed male rat, administered intravenously at a dose of 30 nM/Kg; assay type: functional
[3] = Selectivity ratio for the reduction of mean arterial pressure to that of unstable […] in anesthetized obstructed male rat; assay type: functional, Artery
Rattus norvegicus [4] = assay: In vivo concentration required for the reduction of mean arterial pressure in anesthetized obstructed male rat, administered intravenously at a dose of 50 nM/Kg; assay type: functional, Artery

With CC(=O)Nc1c(C(O)(C(F)(F)F)C(F)(F)F)ccc2ccccc12 the ED10 (Rattus norvegicus [1]) was 0.05 µM/kg, the ED35 (Rattus norvegicus [2]) was 0.03 µM/kg and the Selectivity ratio [3] was 1.7.

CCc1cc(C#N)ccc1Nc1c(N[C@H](C)C(C)(C)C)c(=O)c1=O gave an ED10 (Rattus norvegicus [4]) of 0.12 µM/kg, an ED35 (Rattus norvegicus [2]) of 0.1 µM/kg and a Selectivity ratio [3] of 1.2.

C[C@](O)(C(=O)Nc1ccc(C(=O)c2ccccc2)cc1)C(F)(F)F [ZD-6169] gave an ED10 (Rattus norvegicus [4]) of 1.5 µM/kg, an ED35 (Rattus norvegicus [2]) of 1.4 µM/kg and a Selectivity ratio [3] of 1.1.
